The assay relates to rats with heroin self-administration experience. The assay is described as follows: Cue-induced heroin seeking. In kind it is in vivo, rat. As to conditions: 0.3 mg/kg sc.

Starred links: 1 amine or outer side, 2 acyl side, 3 side chain; linkers in the order of their positions; H or OH if unused. Groups on a side chain read outwards from the residue. No end group written: not given here. *: point of attachment. γGlu = O=C(O)[C@H](CCC(=O)[*:2])N[*:1]; Palmitoyl = CCCCCCCCCCCCCCCC(=O)*

On to “liraglutide (HAEGTFTSDVSSYLEGQAAK([γGlu-Palmitoyl])EFIAWLVRGRG; chains of the INN, looked up)”, for which the “Minimum effective pretreatment time” value is “between four and six”.

Values taken from article doi:10.1101/2021.09.15.460527v1 (bioRxiv, 2021).
